Test results taken from US20200010482A1, “INHIBITORS OF BETA SECRETASE” (Janssen Pharmaceutica NV, priority 2017, published 2020).

Columns and labels:
BACE1 = target: T1, BACE1 (Homo sapiens, UniProt P56817); assay: BACE1 biochemical FRET based assay; conditions: recombinant BACE1 0.04 μg/ml, 20 μM substrate, 450 min, pH 5.0; for IC50: read-out: BIOCHEMICAL FRET BASED ASSAY pIC50 (converted)
T1 construct: recombinant BACE1 protein in a final concentration of 0.04 μg/ml
Source text: (§1) This assay is a Fluorescence Resonance Energy Transfer Assay (FRET) based assay. The substrate for this assay is an APP derived 13 amino acids peptide that contains the ‘Swedish’ Lys-Met/Asn-Leu mutation of the amyloid precursor protein (APP) beta-secretase cleavage site. This substrate also contains two fluorophores: (7-methoxycoumarin-4-yl) acetic acid (Mca) is a fluorescent donor with excitation wavelength at 320 nm and emission at 405 nm and 2,4-Dinitrophenyl (Dnp) is a proprietary quencher acceptor. […] Upon cleavage by BACE1, the fluorophore Mca is separated from the quenching group Dnp, restoring the full fluorescence yield of the donor. The increase in fluorescence is linearly related to the rate of proteolysis.
Briefly in a 384-well format recombinant BACE1 protein in a final concentration of 0.04 μg/ml is incubated for 450 minutes at room temperature with 20 μM substrate in incubation buffer (50 mM Citrate buffer pH 5.0, 0.05% PEG) in the presence of compound or DMSO. Next the amount of proteolysis is directly measured by fluorescence measurement (excitation at 320 nm and emission at 405 nm) at different incubation times (0, 30, 60, 90, 120 and 450 min). For every experiment a time curve (every 30 min between 0 min and 120 min) is used to determine the time where we find the lowest basal signal of the high control. The signal at this time (Tx) is used to subtract from the signal at 450 min. Results are expressed in RFU, as difference between T450 and Tx.
(§2) A best-fit curve is fitted by a minimum sum of squares method to the plot of % Controlmin versus compound concentration. From this an IC50 value (inhibitory concentration causing 50% inhibition of activity) can be obtained. • LC=Median of the low control values=Low control: Reaction without enzyme • HC=Median of the High control values=High Control: Reaction with enzyme
(§3) % Effect=100−[(sample−LC)/(HC−LC)*100]
(§4) % Control=(sample/HC)*100
(§5) % Controlmin=(sample−LC)/(HC−LC)*100

[1] = system: Abeta total produced and secreted by SKNBE2 cells expressing hAPP695; assay: Cellular αLisa assay in SKNBE2 cells, Abeta total; type: cell-based, human; conditions: SKNBE2 cells expressing hAPP695, 18 hours incubation; for IC50: Homo sapiens, SKNBE2, 18 h, read-out: CELLULAR αLISA ASSAY IN SKNBE2 CELLS ABETA TOTAL pIC50 (converted)
Procedure: (§6) In two αLisa assays the levels of Abeta total and Abeta 1-42 produced and secreted into the medium of human neuroblastoma SKNBE2 cells are quantified. The assay is based on the human neuroblastoma SKNBE2 expressing the wild type Amyloid Precursor Protein (hAPP695). The compounds are diluted and added to these cells, incubated for 18 hours and then measurements of Abeta 1-42 and Abeta total are taken. Abeta total and Abeta 1-42 are measured by sandwich αLisa. αLisa is a sandwich assay using biotinylated antibody AbN/25 attached to streptavidin coated beads and antibody Ab4G8 or cAb42/26 conjugated acceptor beads for the detection of Abeta total and Abeta 1-42 respectively. In the presence of Abeta total or Abeta 1-42, the beads come into close proximity. The excitation of the donor beads provokes the release of singlet oxygen molecules that trigger a cascade of energy transfer in the acceptor beads, resulting in light emission. Light emission is measured after 1 hour incubation (excitation at […] and emission at 615 nm).
as §2, with “cells preincubated” for “Reaction”, “compound, without biotinylated Ab in the αLisa” for “enzyme”, “cells preincubated without compound” for “Reaction with enzyme”
as §3, §4, §5

[2] = system: Abeta 1-42 produced and secreted by SKNBE2 cells expressing hAPP695; assay: Cellular αLisa assay in SKNBE2 cells, Abeta 1-42; type: cell-based, human; conditions: SKNBE2 cells expressing hAPP695, 18 hours incubation; for IC50: Homo sapiens, SKNBE2, 18 h, read-out: CELLULAR αLISA ASSAY IN SKNBE2 CELLS ABETA 42 PIC50 (converted)
Procedure: as §6
as §2, with “cells preincubated” for “Reaction”, “compound, without biotinylated Ab in the αLisa” for “enzyme”, “cells preincubated without compound” for “Reaction with enzyme”
as §3, §4, §5

BACE2 = target: T2, BACE2 (Homo sapiens, UniProt Q9Y5Z0); assay: BACE2 biochemical FRET based assay; conditions: recombinant BACE2 0.4 μg/ml, 10 μM substrate, 450 min, pH 5.0; for IC50: read-out: BIOCHEMICAL FRET BASED ASSAY pIC50 (converted)
T2 construct: recombinant BACE2 protein in a final concentration of 0.4 μg/ml
T2 sequence (Q9Y5Z0 63-518): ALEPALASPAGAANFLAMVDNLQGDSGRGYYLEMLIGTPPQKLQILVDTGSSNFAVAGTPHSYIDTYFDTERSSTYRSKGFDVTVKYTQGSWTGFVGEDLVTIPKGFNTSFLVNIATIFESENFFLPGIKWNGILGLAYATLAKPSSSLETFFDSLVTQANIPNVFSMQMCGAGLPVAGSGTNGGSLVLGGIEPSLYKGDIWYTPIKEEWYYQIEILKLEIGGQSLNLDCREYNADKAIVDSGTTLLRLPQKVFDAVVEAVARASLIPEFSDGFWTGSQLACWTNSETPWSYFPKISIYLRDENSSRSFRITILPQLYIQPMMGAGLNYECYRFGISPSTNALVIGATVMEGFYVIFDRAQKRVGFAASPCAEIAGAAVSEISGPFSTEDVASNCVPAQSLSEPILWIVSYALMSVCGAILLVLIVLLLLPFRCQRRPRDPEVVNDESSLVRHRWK
Source text: as §1, with “assay” for “assay is an APP derived 13 amino acids peptide that”, “the beta-secretase,” for “BACE1,”
Briefly in a 384-well format recombinant BACE2 protein in a final concentration of 0.4 μg/ml is incubated for 450 minutes at room temperature with 10 μM substrate in incubation buffer (50 mM Citrate buffer pH 5.0, 0.05% PEG, no DMSO) in the absence or presence of compound. Next the amount of proteolysis is directly measured by fluorescence measurement at T=0 and T=450 (excitation at 320 nm and emission at 405 nm). Results are expressed in RFU (Relative Fluorescence Units), as difference between T450 and TO.
as §2, §3, §4, §5

T1 sequence (P56817 46-501): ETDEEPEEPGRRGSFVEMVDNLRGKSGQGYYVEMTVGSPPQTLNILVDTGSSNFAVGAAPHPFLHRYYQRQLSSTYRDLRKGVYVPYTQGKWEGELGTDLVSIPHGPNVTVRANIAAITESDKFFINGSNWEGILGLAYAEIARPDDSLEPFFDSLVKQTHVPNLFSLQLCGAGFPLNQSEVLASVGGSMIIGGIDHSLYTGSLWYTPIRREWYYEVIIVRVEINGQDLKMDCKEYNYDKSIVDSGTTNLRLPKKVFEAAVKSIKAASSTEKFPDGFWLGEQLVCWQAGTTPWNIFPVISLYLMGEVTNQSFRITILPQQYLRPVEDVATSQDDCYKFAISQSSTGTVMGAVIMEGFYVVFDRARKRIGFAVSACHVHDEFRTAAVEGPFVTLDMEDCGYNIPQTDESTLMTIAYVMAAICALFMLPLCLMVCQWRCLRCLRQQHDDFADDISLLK

SMILES: COc1ncc(-c2cnccc2C)c2c1CC1(c3ccc(Cl)cc3F)N=C(N)SCC1C2 (single isomer, unassigned) [Compound 201]
- IC50 (BACE1): 6.46 µM
- CELLULAR αLISA ASSAY IN SKNBE2 CELLS ABETA TOTAL pIC50 [1]: 5.69
- CELLULAR αLISA ASSAY IN SKNBE2 CELLS ABETA 42 PIC50 [2]: 5.64
- IC50 (BACE2): > 10 µM

SMILES: COc1ncc(Br)c2c1C[C@]1(c3ccccc3F)N=C(N)SC[C@@H]1C2 (racemic) [Compound 16]
- IC50 (BACE1): 0.055 µM
- IC50 [1]: 0.138 µM
- IC50 [2]: 0.138 µM
- IC50 (BACE2): 0.0776 µM

SMILES: COc1nccc2c1CC1(c3cc(O)ccc3F)N=C(N)SCC1C2 (racemic) [Compound 5]
- IC50 (BACE1): 0.162 µM
- IC50 [1]: 0.0324 µM
- IC50 [2]: 0.0263 µM
- IC50 (BACE2): 0.0631 µM

SMILES: COc1ncc(-c2cnccc2C)c2c1C[C@]1(c3cc(-c4cncnc4)ccc3F)N=C(N)SC[C@@H]1C2 (mixture of isomers) [Compound 39]
- BIOCHEMICAL FRET BASED ASSAY pIC50 (BACE1): 8.3
- CELLULAR αLISA ASSAY IN SKNBE2 CELLS ABETA TOTAL pIC50 [1]: 8.71
- CELLULAR αLISA ASSAY IN SKNBE2 CELLS ABETA 42 PIC50 [2]: 8.78
- BIOCHEMICAL FRET BASED ASSAY pIC50 (BACE2): 5.78

SMILES: NC1=N[C@@]2(c3ccccc3F)Cc3c(cc[nH]c3=O)C[C@H]2CS1 (racemic) [Compound 3]
- IC50 (BACE1): 8.71 µM
- IC50 [1]: 4.68 µM
- IC50 [2]: 4.07 µM
- IC50 (BACE2): 9.55 µM
